Laboratory results: article PMC5946847, “Synthesis and biological evaluation of aryl-oxadiazoles as inhibitors of Mycobacterium tuberculosis” (Bioorganic & Medicinal Chemistry Letters, 2018)
Values after ≈ are worked out from the molar mass of the structure shown. Like-named read-outs stand apart in the source and are kept apart here.

Columns and labels:
[1] = Mouse microsomal stability; type: in vitro ADME; conditions: for Mouse microsome (% metabolized in 30 min): 2 μM
Procedure: 4. Method for microsomal stability:
To determine microsomal turnover, test compounds were incubated (2 μM) with liver microsomes in the presence of NADPH, and loss of parent molecule was measured by LC-MS after 30 min.

[2] = physchem; conditions: pH 7.4
[3] = tested on: M. tuberculosis H37Rv expressing DsRed; test: microbe, parasite or virus in culture; type: cell-based; conditions: Mycobacterium tuberculosis, average ± standard deviation for at least 2 runs, read-out: 7H9-Ty-BT MIC
[4] = tested on: M. tuberculosis H37Rv expressing DsRed; test: microbe, parasite or virus in culture; type: cell-based; conditions: Mycobacterium tuberculosis, read-out: 7H9-Tw-OADC MIC
[5] = tested on: Vero cells (ATCC CCL81); test: Cytotoxicity in Vero cells (CellTiter-Glo); type: cell-based; conditions: Chlorocebus sabaeus, 48 h, 2 days
Procedure: Vero cells (ATCC® CCL81) were grown in DMEM, high glucose, GlutaMAX™ (Invitrogen), 10% FBS, 50 units/mL penicillin, and 50 µg/mL streptomycin, seeded as 1200 cells per well in 384-well plates and incubated for 24 h at 37 °C with 5% CO2. Compounds were added as a 3-fold serial dilution series and cells incubated for 2 days at 37 °C with 5% CO2. Viability was measured using CellTiter-Glo® Reagent (Promega).

c1coc(-c2nnc(SCc3cccc4ccccc34)o2)c1 [Compound 4]
CLint scaled at 2 μM ([1]; mouse, microsomes): 1680 mL/min/kg | Mouse microsome (% metabolized in 30 min) ([1]; mouse, microsomes, 0.5 h): 95% | solubility [2]: < 1 µg/mL

c1csc(-c2nnc(COc3ccc4c(c3)OCO4)o2)c1 [Compound 5]
Mouse microsome (% metabolized in 30 min) ([1]; NADPH, 30 min): 76% | CLint scaled at 2 μM ([1]; mouse, microsomes, Table 1, read-out: Mouse microsome unbound intrinsic clearance): 332 mL/min/kg

c1coc(-c2nnc(Cc3cccc4ccccc34)o2)c1 [Compound 6]
MIC [3]: 1.1 ± 0.9 µM (≈ 0.304 µg/mL) | MIC [4]: > 20 µM | IC50 [5]: > 100 µM | Mouse microsome (% metabolized in 30 min) ([1]; mouse, microsomes, 0.5 h): 100% | solubility [2]: < 1 µg/mL

c1csc(-c2nnc(Cc3ccc4ccccc4c3)o2)c1 [Compound 7]
MIC [3]: 5.7 ± 0.2 µM (≈ 1.67 µg/mL) | MIC [4]: > 20 µM | IC50 [5]: > 100 µM | Mouse microsome (% metabolized in 30 min) ([1]; mouse, microsomes, 0.5 h): 100% | solubility [2]: < 1 µg/mL

c1csc(-c2nnc(Cc3cccc4c3OCCO4)o2)c1 [Compound 8]
MIC [3]: 0.8 ± 0.2 µM (≈ 0.24 µg/mL) | MIC [4]: > 20 µM | IC50 [5]: > 100 µM | Mouse microsome (% metabolized in 30 min) ([1]; mouse, microsomes, 0.5 h): 99% | solubility [2]: 77 µg/mL (≈ 256 µM)

c1ccc(Cc2nnc(-c3cccs3)o2)cc1 [Compound 9]
MIC [3]: 1.1 ± 0.2 µM (≈ 0.267 µg/mL) | MIC [4]: > 20 µM | IC50 [5]: 79 µM | Mouse microsome (% metabolized in 30 min) ([1]; mouse, microsomes, 0.5 h): 99% | solubility [2]: 31 µg/mL (≈ 128 µM)

CN(Cc1nnc(-c2ccco2)s1)Cc1c(F)cccc1Cl [Compound 10]
MIC [3]: 3.2 ± 0.5 µM (≈ 1.08 µg/mL) | MIC [4]: > 20 µM | IC50 [5]: 75 µM | Mouse microsome (% metabolized in 30 min) ([1]; mouse, microsomes, 0.5 h): 99% | solubility [2]: 20 µg/mL (≈ 59.2 µM)

CN(Cc1nnc(-c2cccs2)o1)Cc1c(F)cccc1Cl [Compound 11]
MIC [3]: 0.6 ± 0.2 µM (≈ 0.203 µg/mL) | MIC [4]: > 20 µM | IC50 [5]: > 100 µM | Mouse microsome (% metabolized in 30 min) ([1]; mouse, microsomes, 0.5 h): 100% | solubility [2]: 120 µg/mL (≈ 355 µM)

CN(Cc1nnc(-c2ccccc2)o1)Cc1c(F)cccc1Cl [Compound 12]
MIC [3]: 0.4 ± 0.2 µM (≈ 0.133 µg/mL) | MIC [4]: > 20 µM | IC50 [5]: > 100 µM | Mouse microsome (% metabolized in 30 min) ([1]; mouse, microsomes, 0.5 h): 100% | solubility [2]: 78 µg/mL (≈ 235 µM)

CN(Cc1ccccc1)Cc1nnc(-c2cccs2)o1 [Compound 13]
MIC [3]: 0.5 ± 0.1 µM (≈ 0.143 µg/mL) | MIC [4]: > 20 µM | IC50 [5]: > 100 µM | Mouse microsome (% metabolized in 30 min) ([1]; mouse, microsomes, 0.5 h): 98% | solubility [2]: 420 µg/mL (≈ 1470 µM)

CN(Cc1ccccc1)Cc1nnc(-c2ccco2)o1 [Compound 14]
MIC [3]: 0.6 ± 0.2 µM (≈ 0.162 µg/mL) | MIC [4]: > 20 µM | IC50 [5]: > 100 µM | Mouse microsome (% metabolized in 30 min) ([1]; mouse, microsomes, 0.5 h): 95% | solubility [2]: 400 µg/mL (≈ 1490 µM)

CN(Cc1nnc(-c2ccco2)o1)Cc1ccccc1Cl [Compound 15]
MIC [3]: 0.6 ± 0.2 µM (≈ 0.182 µg/mL) | MIC [4]: > 20 µM | IC50 [5]: 98 µM | Mouse microsome (% metabolized in 30 min) ([1]; mouse, microsomes, 0.5 h): 100% | solubility [2]: 270 µg/mL (≈ 889 µM)

CN(Cc1ccc(F)cc1)Cc1nnc(-c2ccccc2)o1 [Compound 16]
MIC [3]: 0.9 ± 0.03 µM (≈ 0.268 µg/mL) | MIC [4]: > 20 µM | IC50 [5]: 97 µM

CN(Cc1ccc(C(F)(F)F)cc1)Cc1nnc(-c2cccs2)o1 [Compound 17]
MIC [3]: 6.8 ± 2.4 µM (≈ 2.4 µg/mL) | MIC [4]: > 20 µM | IC50 [5]: 87 µM | Mouse microsome (% metabolized in 30 min) ([1]; mouse, microsomes, 0.5 h): 98% | solubility [2]: 22 µg/mL (≈ 62.3 µM)

CN(Cc1ccc(C(F)(F)F)cc1)Cc1nnc(-c2ccccc2)o1 [Compound 18]
MIC [3]: 10.8 ± 3.3 µM (≈ 3.75 µg/mL) | MIC [4]: > 20 µM | IC50 [5]: 80 µM | Mouse microsome (% metabolized in 30 min) ([1]; mouse, microsomes, 0.5 h): 99% | solubility [2]: 9 µg/mL (≈ 25.9 µM)

CN(Cc1nnc(-c2ccco2)o1)CC1CCCCC1 [Compound 19]
MIC [3]: 0.7 ± 0.5 µM (≈ 0.193 µg/mL) | MIC [4]: > 20 µM | IC50 [5]: 90 µM | Mouse microsome (% metabolized in 30 min) ([1]; mouse, microsomes, 0.5 h): 100% | solubility [2]: 41 µg/mL (≈ 149 µM)

Fc1cccc(Cl)c1CNCc1nnc(-c2ccco2)o1 [Compound 20]
MIC [3]: 5.5 ± 0.4 µM (≈ 1.69 µg/mL) | MIC [4]: > 20 µM | IC50 [5]: > 100 µM | Mouse microsome (% metabolized in 30 min) ([1]; mouse, microsomes, 0.5 h): 99% | solubility [2]: 180 µg/mL (≈ 585 µM)

Fc1cccc(Cl)c1COCc1nnc(-c2ccco2)o1 [Compound 21]
MIC [3]: 6 ± 0.4 µM (≈ 1.85 µg/mL) | MIC [4]: > 20 µM | IC50 [5]: > 100 µM | Mouse microsome (% metabolized in 30 min) ([1]; mouse, microsomes, 0.5 h): 100% | solubility [2]: 150 µg/mL (≈ 486 µM)

CN(Cc1nnc(-c2ccco2)o1)C(=O)c1c(F)cccc1Cl [Compound 22]
MIC [3]: > 20 µM | MIC [4]: > 20 µM | IC50 [5]: > 100 µM | Mouse microsome (% metabolized in 30 min) ([1]; mouse, microsomes, 0.5 h): 95% | solubility [2]: 640 µg/mL (≈ 1910 µM)

CN(CCc1c(F)cccc1Cl)c1nnc(-c2ccco2)o1 [Compound 23]
MIC [3]: 4 ± 0.6 µM (≈ 1.29 µg/mL) | MIC [4]: > 20 µM | IC50 [5]: 93 µM | Mouse microsome (% metabolized in 30 min) ([1]; mouse, microsomes, 0.5 h): 99% | solubility [2]: 7 µg/mL (≈ 21.8 µM)

c1csc(-c2nnc(CN3CCCc4ccccc43)o2)c1 [Compound 24]
MIC [3]: 0.8 ± 0.5 µM (≈ 0.238 µg/mL) | MIC [4]: > 20 µM | IC50 [5]: > 100 µM | Mouse microsome (% metabolized in 30 min) ([1]; mouse, microsomes, 0.5 h): 97% | solubility [2]: 5 µg/mL (≈ 16.8 µM)

c1ccc(-c2nnc(CN3CCCc4ccccc43)o2)cc1 [Compound 25]
MIC [3]: 1.7 ± 0.1 µM (≈ 0.495 µg/mL) | MIC [4]: > 20 µM | IC50 [5]: > 100 µM | Mouse microsome (% metabolized in 30 min) ([1]; mouse, microsomes, 0.5 h): 100% | solubility [2]: 3 µg/mL (≈ 10.3 µM)

Fc1ccc(-c2nnc(CN3CCCc4ccccc43)o2)cc1 [Compound 26]
MIC [3]: 0.2 ± 0.1 µM (≈ 0.0619 µg/mL) | MIC [4]: > 20 µM | IC50 [5]: > 100 µM | Mouse microsome (% metabolized in 30 min) ([1]; mouse, microsomes, 0.5 h): 100% | solubility [2]: < 2 µg/mL

FC(F)(F)c1ccc(-c2nnc(CN3CCCc4ccccc43)o2)cc1 [Compound 27]
MIC [3]: 0.7 ± 0.3 µM (≈ 0.252 µg/mL) | MIC [4]: > 20 µM | IC50 [5]: > 100 µM | Mouse microsome (% metabolized in 30 min) ([1]; mouse, microsomes, 0.5 h): 87% | solubility [2]: < 2 µg/mL

c1csc(-c2nnc(CN3CCc4ccccc4C3)o2)c1 [Compound 28]
MIC [3]: 3.7 ± 0.3 µM (≈ 1.1 µg/mL) | MIC [4]: > 20 µM | IC50 [5]: > 100 µM | Mouse microsome (% metabolized in 30 min) ([1]; mouse, microsomes, 0.5 h): 99% | solubility [2]: 54 µg/mL (≈ 182 µM)

c1ccc(-c2nnc(CN3CCc4ccccc4C3)o2)cc1 [Compound 29]
MIC [3]: 7.7 ± 0.8 µM (≈ 2.24 µg/mL) | MIC [4]: > 20 µM | IC50 [5]: > 100 µM | Mouse microsome (% metabolized in 30 min) ([1]; mouse, microsomes, 0.5 h): 99% | solubility [2]: 51 µg/mL (≈ 175 µM)

FC(F)(F)c1ccc(-c2nnc(CN3CCc4ccccc4C3)o2)cc1 [Compound 31]
MIC [3]: > 20 µM | MIC [4]: > 20 µM | IC50 [5]: > 100 µM | solubility [2]: < 2 µg/mL
